This passage reports Ki results from US8242174B2 (priority 2007, dated 2012).

pKi: −log10 of the molar value.

The target of this experiment is Lethal factor protease (Bacillus anthracis, UniProt P15917). As to the kind of experiment: biochemical.
Chain of Lethal factor protease (P15917 34-809 limits assumed): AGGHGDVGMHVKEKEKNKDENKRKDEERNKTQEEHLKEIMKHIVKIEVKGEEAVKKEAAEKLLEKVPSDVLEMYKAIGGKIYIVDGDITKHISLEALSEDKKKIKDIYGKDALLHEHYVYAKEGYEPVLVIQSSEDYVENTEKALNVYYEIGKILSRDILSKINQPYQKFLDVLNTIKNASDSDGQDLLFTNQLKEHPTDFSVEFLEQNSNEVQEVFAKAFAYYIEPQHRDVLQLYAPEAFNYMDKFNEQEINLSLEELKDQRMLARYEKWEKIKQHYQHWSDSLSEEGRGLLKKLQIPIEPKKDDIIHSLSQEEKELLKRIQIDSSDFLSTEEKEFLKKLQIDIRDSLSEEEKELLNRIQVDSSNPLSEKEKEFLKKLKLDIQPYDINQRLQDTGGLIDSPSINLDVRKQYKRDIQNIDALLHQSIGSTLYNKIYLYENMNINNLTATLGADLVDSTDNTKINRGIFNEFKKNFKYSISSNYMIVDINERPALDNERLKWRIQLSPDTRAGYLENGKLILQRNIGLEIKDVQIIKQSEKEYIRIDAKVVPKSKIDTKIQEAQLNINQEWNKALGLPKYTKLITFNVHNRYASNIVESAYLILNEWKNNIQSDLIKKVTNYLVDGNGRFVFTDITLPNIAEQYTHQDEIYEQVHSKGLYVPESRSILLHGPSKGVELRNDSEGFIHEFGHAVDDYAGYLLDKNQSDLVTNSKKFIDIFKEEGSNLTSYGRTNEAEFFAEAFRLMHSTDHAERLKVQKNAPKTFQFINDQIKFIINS

Broadly, the pKi is the negative decadic logarithm of the Ki, by convention in mol/L. Take `Cc1cc(N[C@H](C)C(=O)NO)ccc1F` [Compound 167392, (R)-2-(4-Fluoro-3-methyl-phenylamino)-N-hydroxy-propionamide]: the pKi is 6.02.
Molecule `Cc1cc(N[C@H](CC(C)C)C(=O)NO)cc(C)c1F` [Compound 167402, (R)-2-(4-Fluoro-3,5-dimethyl-phenylamino)-4-methyl-pentanoic acid hydroxyamide] gave a pKi of 6.17.
With `Cc1cc(N[C@H](CC2CCCCC2)C(=O)NO)cc(C)c1F` [Compound 167405, (R)-3-Cyclohexyl-2-(4-fluoro-3,5-dimethyl-phenylamino)-N-hydroxy-propionamide], the pKi is 5.83.
For the molecule `Cc1cc(N[C@H](CCc2ccccc2)C(=O)NO)cc(C)c1F` [Compound 167406, (R)-2-(4-Fluoro-3,5-dimethyl-phenylamino)-N-hydroxy-4-phenyl-butyramide], the pKi was 6.29.
With `Cc1cc(N[C@@H](C(=O)NO)C2CCCCC2)cc(C)c1F` [Compound 167424, (R)-2-Cyclohexyl-2-(4-fluoro-3,5-dimethyl-phenylamino)-N-hydroxy-acetamide], the pKi is 6.10.
`Cc1cc(N[C@@H](C(=O)NO)c2ccccc2)cc(C)c1F` [Compound 167425, (R)-2-(4-Fluoro-3,5-dimethyl-phenylamino)-N-hydroxy-2-phenyl-acetamide] gave a pKi of 6.32.
As for `CC[C@@H](Nc1cc(C)c(F)c(C)c1)C(=O)NO` [Compound 167450, (R)-2-(4-Fluoro-3,5-dimethyl-phenylamino)-N-hydroxy-butyramide], the pKi is 6.17.
As to `Cc1cc(NCC(=O)NO)cc(C)c1F` [Compound 167452, 2-(4-Fluoro-3,5-dimethyl-phenylamino)-N-hydroxy-acetamide], the pKi was 5.40.
`CCCCC(Nc1cc(C)c(F)c(C)c1)C(=O)NO` (stereo not drawn) [Compound 167454, 2-(4-Fluoro-3,5-dimethyl-phenylamino)-hexanoic acid hydroxyamide] gave a pKi of 6.10. This pKi lies 0.70 log units higher than the previous one.
The result for `CCCCC(Nc1ccc(C)c(F)c1C)C(=O)NO` (stereo not drawn) [Compound 167455, 2-(3-Fluoro-2,4-dimethyl-phenylamino)-hexanoic acid hydroxyamide] reads 4.06; that for `Cc1cc(NC(CCC(F)(F)F)C(=O)NO)cc(C)c1F` (stereo not drawn) [Compound 167482, 5,5,5-Trifluoro-2-(4-fluoro-3,5-dimethyl-phenylamino)-pentanoic acid hydroxyamide], 5.96; that for `Cc1cc(NC(CCCC(F)(F)F)C(=O)NO)cc(C)c1F` (stereo not drawn) [Compound 167483, 6,6,6-Trifluoro-2-(4-fluoro-3,5-dimethyl-phenylamino)-hexanoic acid hydroxyamide], 5.89.
`Cc1cc(N[C@H](COC(C)(C)C)C(=O)NO)cc(C)c1F` [Compound 167484, (R)-3-tert-Butoxy-2-(4-fluoro-3,5-dimethyl-phenylamino)-N-hydroxy-propionamide] showed a pKi of 6.35.
On to `Cc1cc(N[C@H](CO)C(=O)NO)cc(C)c1F` [Compound 167485, (R)-2-(4-Fluoro-3,5-dimethyl-phenylamino)-3,N-dihydroxy-propionamide], for which the pKi is 6.23.
`Cc1cc(NC(C)C(=O)NO)cc(C)c1F` (stereo not drawn) [Compound 167486, 2-(4-Fluoro-3,5-dimethyl-phenylamino)-N-hydroxy-propionamide] gave a pKi of 6.16.
The result for `Cc1cc(N[C@H](C)C(=O)NO)cc(C)c1F` [Compound 167497, (R)-2-(4-Fluoro-3,5-dimethyl-phenylamino)-N-hydroxy-propionamide] reads 6.33; that for `Cc1cc(N[C@@H](C)C(=O)NO)cc(C)c1F` [Compound 167498, (S)-2-(4-Fluoro-3,5-dimethyl-phenylamino)-N-hydroxy-propionamide], 4.29.
As for `Cc1cc(N[C@H](CCCCNC(=O)OCc2ccccc2)C(=O)NO)cc(C)c1F` [Compound 167503, (R)-[5-(4-Fluoro-3,5-dimethyl-phenylamino)-5-hydroxycarbamoyl-pentyl]-carbamic acid benzyl ester], the pKi was 6.54.
Molecule `Cc1cc(N[C@H](CCCCN)C(=O)NO)cc(C)c1F` [Compound 167517, (R)-6-Amino-2-(4-fluoro-3,5-dimethyl-phenylamino)-hexanoic acid hydroxyamide] showed a pKi of 6.60.
The result for `Cc1cc(N[C@H](CCCCNS(=O)(=O)c2cc(C)c(F)c(C)c2)C(=O)NO)cc(C)c1F` [Compound 167530, (R)-6-(4-Fluoro-3,5-dimethyl-benzenesulfonylamino)-2-(4-fluoro-3,5-dimethyl-phenylamino)-hexanoic acid hydroxyamide] reads 6.43.
Turning to `Cc1cc(N[C@H](CCCCNS(C)(=O)=O)C(=O)NO)cc(C)c1F` [Compound 167531, (R)-2-(4-Fluoro-3,5-dimethyl-phenylamino)-6-methanesulfonylamino-hexanoic acid hydroxyamide], the pKi is 6.00.
The result for `Cc1cc(C(=O)NCCCC[C@@H](Nc2cc(C)c(F)c(C)c2)C(=O)NO)ccc1F` [Compound 167551, (R)-4-Fluoro-N-[5-(4-fluoro-3,5-dimethyl-phenylamino)-5-hydroxycarbamoyl-pentyl]-3-methyl-benzamide] reads 6.41.
In turn, `CC(=O)NCCCC[C@@H](Nc1cc(C)c(F)c(C)c1)C(=O)NO` [Compound 167552, (R)-6-Acetylamino-2-(4-fluoro-3,5-dimethyl-phenylamino)-hexanoic acid hydroxyamide] gave a pKi of 5.60. This pKi is 0.81 log units lower than that of the molecule before.
Turning to `Cc1cc(N[C@H](CCCCNC(=O)OC(C)(C)C)C(=O)NO)cc(C)c1F` [Compound 167561, (R)-[5-(4-Fluoro-3,5-dimethyl-phenylamino)-5-hydroxycarbamoyl-pentyl]-carbamic acid tert-butyl ester], the pKi was 6.15. Compared with the last molecule, the pKi is 0.55 log units higher.
`Cc1cc(N[C@H](CCCCNC(=O)c2ccccc2)C(=O)NO)cc(C)c1F` [Compound 167587, (R)—N-[5-(4-Fluoro-3,5-dimethyl-phenylamino)-5-hydroxycarbamoyl-pentyl]-benzamide] showed a pKi of 6.01.
The result for `Cc1cc(N[C@H](CCCCNC(=O)Cc2ccccc2)C(=O)NO)cc(C)c1F` [Compound 167588, (R)-2-(4-Fluoro-3,5-dimethyl-phenylamino)-6-phenylacetylamino-hexanoic acid hydroxyamide] reads 5.92; that for `Cc1cc(N[C@H](CCCCNS(=O)(=O)c2ccc(F)cc2)C(=O)NO)cc(C)c1F` [Compound 167589, (R)-6-(4-Fluoro-benzenesulfonylamino)-2-(4-fluoro-3,5-dimethyl-phenylamino)-hexanoic acid hydroxyamide], 5.90; that for `Cc1cc(S(=O)(=O)NCCCC[C@@H](Nc2cc(C)c(F)c(C)c2)C(=O)NO)ccc1F` [Compound 167590, (R)-2-(4-Fluoro-3,5-dimethyl-phenylamino)-6-(4-fluoro-3-methyl-benzenesulfonylamino)-hexanoic acid hydroxyamide], 6.60.
`Cc1cc(N[C@H](CCCCNC(=O)Cc2ccc(-n3c(C)ccc3C)cc2)C(=O)NO)cc(C)c1F` [Compound 167592, (R)-6-{2-[4-(2,5-Dimethyl-pyrrol-1-yl)-phenyl]-acetylamino}-2-(4-fluoro-3,5-dimethyl-phenylamino)-hexanoic acid hydroxyamide] had a pKi of 5.84.
Molecule `Cc1cc(N[C@H](CCCCn2c(C)ccc2C)C(=O)NO)cc(C)c1F` [Compound 167605, (R)-6-(2,5-Dimethyl-pyrrol-1-yl)-2-(4-fluoro-3,5-dimethyl-phenylamino)-hexanoic acid hydroxyamide] had a pKi of 5.70. The pKi values of the last two molecules are within 0.2 log units of each other.
`Cc1cc(N[C@H](CCCCNC(=O)C(c2ccccc2)c2ccccc2)C(=O)NO)cc(C)c1F` [Compound 167610, (R)-6-Diphenylacetylamino-2-(4-fluoro-3,5-dimethyl-phenylamino)-hexanoic acid hydroxyamide]: the pKi is 5.87.
For `Cc1cc(N[C@H](CCCCNC(=O)Cc2cccc(Oc3ccccc3)c2)C(=O)NO)cc(C)c1F` [Compound 167611, (R)-2-(4-Fluoro-3,5-dimethyl-phenylamino)-6-[2-(3-phenoxy-phenyl)-acetylamino]-hexanoic acid hydroxyamide], the pKi was 6.13.
The molecule `Cc1cc(N[C@H](CCCCNS(=O)(=O)c2ccc(C(=O)O)cc2)C(=O)NO)cc(C)c1F` [Compound 167613, (R)-4-[5-(4-Fluoro-3,5-dimethyl-phenylamino)-5-hydroxycarbamoyl-pentylsulfamoyl]-benzoic acid] showed a pKi of 5.44.
`Cc1cc(NC(=O)NCCCC[C@@H](Nc2cc(C)c(F)c(C)c2)C(=O)NO)ccc1F` [Compound 167614, (R)-2-(4-Fluoro-3,5-dimethyl-phenylamino)-6-[3-(4-fluoro-3-methyl-phenyl)-ureido]-hexanoic acid hydroxyamide] gave a pKi of 6.55.
With `Cc1cc(N[C@H](CCCCNS(=O)(=O)c2ccccc2)C(=O)NO)cc(C)c1F` [Compound 167615, (R)-6-Benzenesulfonylamino-2-(4-fluoro-3,5-dimethyl-phenylamino)-hexanoic acid hydroxyamide], the pKi was 6.08.
`Cc1cc(N[C@H](CCCCNC(=O)CCC(=O)O)C(=O)NO)cc(C)c1F` [Compound 167620, (R)—N-[5-(4-Fluoro-3,5-dimethyl-phenylamino)-5-hydroxycarbamoyl-pentyl]-succinamic acid] had a pKi of 5.46. Compared with the last molecule, the pKi is 0.62 log units lower.
Turning to `Cc1cc(N[C@H](CCCCNS(=O)(=O)c2cccc(C(=O)O)c2)C(=O)NO)cc(C)c1F` [Compound 167621, (R)-3-[5-(4-Fluoro-3,5-dimethyl-phenylamino)-5-hydroxycarbamoyl-pentylsulfamoyl]-benzoic acid], the pKi was 5.80.
With `Cc1cc(N[C@H](CCCCNS(=O)(=O)c2cccc([N+](=O)[O-])c2)C(=O)NO)cc(C)c1F` [Compound 167622, (R)-2-(4-Fluoro-3,5-dimethyl-phenylamino)-6-(3-nitro-benzenesulfonylamino)-hexanoic acid hydroxyamide], the pKi was 6.82.
Molecule `CCCCC(Nc1cc(C)cc(Cl)c1)C(=O)NO` (stereo not drawn) [Compound 167645, 2-(3-Chloro-5-methyl-phenylamino)-hexanoic acid hydroxyamide] had a pKi of 5.66.
